Data as given in US20240270821A1, “GIP/GLP1/GCG TRI-RECEPTOR AGONISTS AND USES THEREOF” (priority 2023, published 2024).
Starred links: 1 amine or outer side, 2 acyl side, 3 side chain; linkers in the order of their positions; H or OH if unused. Non-standard residues stand in square brackets, D forms with d. Residues, ends and D or L forms follow the SMILES beside them. Groups on a side chain read outwards from the residue. *: point of attachment. C18 diacid = O=C(O)CCCCCCCCCCCCCCCCC(=O)*; αMePhe(2-F) = C[C@](N)(Cc1ccccc1F)C(=O)O; γGlu = O=C(O)[C@H](CCC(=O)[*:2])N[*:1]; αMeY = C[C@](N)(Cc1ccc(O)cc1)C(=O)O; 4Pal = N[C@@H](Cc1ccncc1)C(=O)O; αMeL = CC(C)C[C@](C)(N)C(=O)O; αMeS = C[C@](N)(CO)C(=O)O; Orn = NCCC[C@H](N)C(=O)O; AEEA = NCCOCCOCC(=O)O; Aib = CC(C)(N)C(=O)O

Tests used:
Assay type in all cases: cell-based
hGIPR [1] = molecular target: T1, hGIPR (Homo sapiens, UniProt P48546); assay: Functional cAMP activity in the presence of 1% HSA; details: read-out: cAMP Rel EC50, hGIPR
T1 sequence (P48546 22-466): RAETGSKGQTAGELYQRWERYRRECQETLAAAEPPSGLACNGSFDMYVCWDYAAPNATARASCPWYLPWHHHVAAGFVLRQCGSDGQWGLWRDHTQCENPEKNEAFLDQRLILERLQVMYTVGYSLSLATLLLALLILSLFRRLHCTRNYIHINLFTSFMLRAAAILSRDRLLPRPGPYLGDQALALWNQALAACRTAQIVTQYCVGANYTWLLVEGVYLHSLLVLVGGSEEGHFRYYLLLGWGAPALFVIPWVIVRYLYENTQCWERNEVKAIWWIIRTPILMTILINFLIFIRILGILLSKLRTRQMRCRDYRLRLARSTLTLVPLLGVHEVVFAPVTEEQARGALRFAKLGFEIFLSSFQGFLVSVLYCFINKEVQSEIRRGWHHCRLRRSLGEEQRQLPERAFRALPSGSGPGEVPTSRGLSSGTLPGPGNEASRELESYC

hGIPR [2] = molecular target: T1, hGIPR; assay: Functional cAMP activation in the presence of 0.1% casein (no HSA); details: read-out: Relative cAMP EC50, hGIPR;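 on Relative cAMP EC50, hGIPR: intracellular cAMP rise after 30 min at 37 °C read by HTRF against a standard curve, scaled between buffer alone (0%) and top control ligand concentration (100%), four-parameter fit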;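 on Relative cAMP EC50, hGLP-1R: intracellular cAMP rise after 30 min at 37 °C read by HTRF, normalized between buffer only (0%) and maximal control ligand (100%), four-parameter variable-slope fit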
human GcgR = human GcgR (Homo sapiens, UniProt P47871); assay: Functional cAMP activity in the presence of 1% HSA; details: read-out: cAMP Rel EC50, hGcgR
hGcgR = hGcgR (Homo sapiens, UniProt P47871); assay: Functional cAMP activation in the presence of 0.1% casein (no HSA); details: read-out: Relative cAMP EC50, hGcgR;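 further: intracellular cAMP rise after 30 min at 37 °C, read by HTRF against a cAMP standard curve, scaled from buffer only (0%) to maximal control ligand response (100%)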
hGLP-1R [3] = molecular target: T2, hGLP-1R (Homo sapiens, UniProt P43220); assay: as above; details: read-out: Relative cAMP EC50, hGLP-1R;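 further: intracellular cAMP rise after 30 min at 37 °C read by HTRF, normalized between buffer only (0%) and maximal control ligand (100%), four-parameter variable-slope fit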
hGLP-1R [4] = molecular target: T2, hGLP-1R; assay: Functional cAMP activity in the presence of 1% HSA; details: read-out: cAMP Rel EC50, hGLP-1R

T2 sequence (P43220 24-463): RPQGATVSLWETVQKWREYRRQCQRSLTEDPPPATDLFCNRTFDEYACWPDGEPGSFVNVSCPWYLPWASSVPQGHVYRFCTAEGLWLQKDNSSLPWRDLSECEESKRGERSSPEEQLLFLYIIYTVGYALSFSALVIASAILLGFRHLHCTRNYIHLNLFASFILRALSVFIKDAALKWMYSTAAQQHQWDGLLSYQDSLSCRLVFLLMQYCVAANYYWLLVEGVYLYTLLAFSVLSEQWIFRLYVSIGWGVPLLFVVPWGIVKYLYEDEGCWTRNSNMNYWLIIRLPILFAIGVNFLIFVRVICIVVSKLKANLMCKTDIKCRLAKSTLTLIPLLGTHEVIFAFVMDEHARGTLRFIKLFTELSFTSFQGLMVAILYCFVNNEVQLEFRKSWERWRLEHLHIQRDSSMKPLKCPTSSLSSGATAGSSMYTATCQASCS
Sequence of human GcgR (P47871 26-477): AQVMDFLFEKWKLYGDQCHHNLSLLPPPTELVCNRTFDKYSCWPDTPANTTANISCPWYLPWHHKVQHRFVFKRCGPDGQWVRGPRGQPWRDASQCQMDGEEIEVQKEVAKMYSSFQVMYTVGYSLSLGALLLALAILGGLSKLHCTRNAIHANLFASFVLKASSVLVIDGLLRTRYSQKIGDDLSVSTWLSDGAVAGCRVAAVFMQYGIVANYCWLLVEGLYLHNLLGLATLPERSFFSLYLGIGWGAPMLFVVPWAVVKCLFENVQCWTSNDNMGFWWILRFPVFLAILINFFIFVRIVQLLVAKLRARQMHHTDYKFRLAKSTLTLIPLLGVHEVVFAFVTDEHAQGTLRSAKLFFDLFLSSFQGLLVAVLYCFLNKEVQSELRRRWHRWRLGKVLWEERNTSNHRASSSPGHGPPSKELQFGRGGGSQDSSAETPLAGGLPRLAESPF
Sequence of hGcgR (P47871 26-477): as above

SMILES | EC50 (hGIPR [1]) [nM] | EC50 (hGIPR [2]) [nM] | EC50 (human GcgR) [nM] | EC50 (hGcgR) [nM] | EC50 (hGLP-1R [3]) [nM] | EC50 (hGLP-1R [4]) [nM]
CC[C@H](C)[C@H](NC(=O)[C@H](CC(C)C)NC(=O)[C@H](Cc1ccc(O)cc1)NC(=O)[C@@H](CCC(=O)O)NC(=O)[C@@H](NC(=O)[C@H](Cc1ccccc1)NC(=O)[C@H](CCCN)NC(=O)C(C)(C)NC(=O)[C@H](CCC(N)=O)NC(=O)[C@H](C)NC(=O)[C@H](CCCCNC(=O)COCCOCCNC(=O)CC[C@H](NC(=O)CCCCCCCCCCCCCCCCC(=O)O)C(=O)O)NC(=O)[C@H](CCCN)NC(=O)[C@H](CC(=O)O)NC(=O)[C@H](CC(C)C)NC(=O)[C@](C)(CC(C)C)NC(=O)[C@@H](NC(=O)[C@](C)(CO)NC(=O)[C@H](Cc1ccncc1)NC(=O)[C@H](CC(=O)O)NC(=O)[C@H](CO)NC(=O)[C@@H](NC(=O)[C@](C)(Cc1ccccc1F)NC(=O)[C@@H](NC(=O)CNC(=O)[C@H](CCC(N)=O)NC(=O)C(C)(C)NC(=O)[C@@H](N)Cc1ccc(O)cc1)[C@@H](C)O)[C@@H](C)O)[C@@H](C)CC)[C@@H](C)CC)C(=O)N[C@@H](CCC(=O)O)C(=O)NCC(=O)NCC(=O)N1CCC[C@H]1C(=O)N[C@@H](CO)C(=O)N[C@@H](CO)C(=O)NCC(=O)N[C@@H](CCC(=O)O)C(=O)N1CCC[C@H]1C(=O)N1CCC[C@H]1C(=O)N1CCC[C@H]1C(=O)N[C@@H](CCC(=O)O)C(N)=O [Example 458] (H-Y[Aib]QGT[αMePhe(2-F)]TSD[4Pal][αMeS]I[αMeL]LD[Orn]K([AEEA-γGlu-C18 diacid])AQ[Aib][Orn]FI[dE]YLIEGGPSSGEPPPE-NH2) | 8.07 | 0.0448 | 319 | 5.29 | 0.347 | 22.7
CC[C@H](C)[C@H](NC(=O)[C@H](CC(C)C)NC(=O)[C@H](Cc1ccc(O)cc1)NC(=O)[C@H](CCC(=O)O)NC(=O)[C@@H](NC(=O)[C@H](Cc1ccccc1)NC(=O)[C@H](CCCN)NC(=O)C(C)(C)NC(=O)[C@H](CCC(N)=O)NC(=O)[C@H](C)NC(=O)[C@H](CCCCNC(=O)COCCOCCNC(=O)CC[C@H](NC(=O)CCCCCCCCCCCCCCCCC(=O)O)C(=O)O)NC(=O)[C@H](CCCN)NC(=O)[C@H](CC(=O)O)NC(=O)[C@H](CC(C)C)NC(=O)[C@](C)(CC(C)C)NC(=O)[C@@H](NC(=O)[C@](C)(CO)NC(=O)[C@H](Cc1ccncc1)NC(=O)[C@H](CC(=O)O)NC(=O)[C@H](CO)NC(=O)[C@@H](NC(=O)[C@](C)(Cc1ccccc1F)NC(=O)[C@@H](NC(=O)CNC(=O)[C@H](CCC(N)=O)NC(=O)C(C)(C)NC(=O)[C@@H](N)Cc1ccc(O)cc1)[C@@H](C)O)[C@@H](C)O)[C@@H](C)CC)[C@@H](C)CC)C(=O)N[C@@H](CCC(=O)O)C(=O)NCC(=O)NCC(=O)N1CCC[C@H]1C(=O)N[C@@H](CO)C(=O)N[C@@H](CO)C(=O)NCC(=O)N[C@@H](CCC(=O)O)C(=O)N1CCC[C@H]1C(=O)N1CCC[C@H]1C(=O)N1CCC[C@H]1C(=O)N[C@@H](CCC(=O)O)C(N)=O [Example 459] (H-Y[Aib]QGT[αMePhe(2-F)]TSD[4Pal][αMeS]I[αMeL]LD[Orn]K([AEEA-γGlu-C18 diacid])AQ[Aib][Orn]FIEYLIEGGPSSGEPPPE-NH2) | 2.06 | 0.0122 | 73.6 | 1.21 | 0.179 | 12.6
CC[C@H](C)[C@H](NC(=O)[C@H](Cc1ccccc1)NC(=O)[C@H](CCCN)NC(=O)C(C)(C)NC(=O)[C@H](CCC(N)=O)NC(=O)[C@H](C)NC(=O)[C@H](CCCCNC(=O)COCCOCCNC(=O)CC[C@H](NC(=O)CCCCCCCCCCCCCCCCC(=O)O)C(=O)O)NC(=O)[C@H](CCCN)NC(=O)[C@H](CC(=O)O)NC(=O)[C@H](CC(C)C)NC(=O)[C@](C)(CC(C)C)NC(=O)[C@@H](NC(=O)[C@](C)(CO)NC(=O)[C@H](Cc1ccncc1)NC(=O)[C@H](CC(=O)O)NC(=O)[C@H](CO)NC(=O)[C@@H](NC(=O)[C@](C)(Cc1ccccc1F)NC(=O)[C@@H](NC(=O)CNC(=O)[C@H](CCC(N)=O)NC(=O)C(C)(C)NC(=O)[C@@H](N)Cc1ccc(O)cc1)[C@@H](C)O)[C@@H](C)O)[C@@H](C)CC)C(=O)N[C@H](CCC(=O)O)C(=O)N[C@@H](Cc1ccc(O)cc1)C(=O)N[C@@H](CC(C)C)C(=O)N[C@@H](CC(C)C)C(=O)N[C@@H](CCC(=O)O)C(=O)NCC(=O)NCC(=O)N1CCC[C@H]1C(=O)N[C@@H](CO)C(=O)N[C@@H](CO)C(=O)NCC(=O)N[C@@H](CCC(=O)O)C(=O)N1CCC[C@H]1C(=O)N1CCC[C@H]1C(=O)N1CCC[C@H]1C(=O)N[C@@H](CCC(=O)O)C(N)=O [Example 460] (H-Y[Aib]QGT[αMePhe(2-F)]TSD[4Pal][αMeS]I[αMeL]LD[Orn]K([AEEA-γGlu-C18 diacid])AQ[Aib][Orn]FI[dE]YLLEGGPSSGEPPPE-NH2) | 8.93 | 0.0624 | 142 | 1.89 | 0.636 | 31.1
CC[C@H](C)[C@H](NC(=O)[C@H](CC(C)C)NC(=O)[C@](C)(Cc1ccc(O)cc1)NC(=O)[C@@H](CCC(=O)O)NC(=O)[C@@H](NC(=O)[C@H](Cc1ccccc1)NC(=O)[C@H](CCCN)NC(=O)C(C)(C)NC(=O)[C@H](CCC(N)=O)NC(=O)[C@H](C)NC(=O)[C@H](CCCCNC(=O)COCCOCCNC(=O)CC[C@H](NC(=O)CCCCCCCCCCCCCCCCC(=O)O)C(=O)O)NC(=O)[C@H](CCCN)NC(=O)[C@H](CC(=O)O)NC(=O)[C@H](CC(C)C)NC(=O)[C@](C)(CC(C)C)NC(=O)[C@@H](NC(=O)[C@](C)(CO)NC(=O)[C@H](Cc1ccncc1)NC(=O)[C@H](CC(=O)O)NC(=O)[C@H](CO)NC(=O)[C@@H](NC(=O)[C@](C)(Cc1ccccc1F)NC(=O)[C@@H](NC(=O)CNC(=O)[C@H](CCC(N)=O)NC(=O)C(C)(C)NC(=O)[C@@H](N)Cc1ccc(O)cc1)[C@@H](C)O)[C@@H](C)O)[C@@H](C)CC)[C@@H](C)CC)C(=O)N[C@@H](CCC(=O)O)C(=O)NCC(=O)NCC(=O)N1CCC[C@H]1C(=O)N[C@@H](CO)C(=O)N[C@@H](CO)C(=O)NCC(=O)N[C@@H](CCC(=O)O)C(=O)N1CCC[C@H]1C(=O)N[C@@H](CCC(=O)O)C(=O)N1CCC[C@H]1C(=O)N[C@@H](CCC(=O)O)C(N)=O [Example 461] (H-Y[Aib]QGT[αMePhe(2-F)]TSD[4Pal][αMeS]I[αMeL]LD[Orn]K([AEEA-γGlu-C18 diacid])AQ[Aib][Orn]FI[dE][αMeY]LIEGGPSSGEPEPE-NH2) | 2.51 | 0.0171 | 131 | 1.53 | 0.194 | 12
